According to patent publication US20200188388A1, “METHODS AND COMPOSITIONS FOR PO[…] DRUGS AND REDUCING THEIR SIDE EFFECTS” (RVX THERAPEUTICS LTD., priority 2016, published 2020):
“And” between values parts separate entries of the source, which are not always exact repeats. Identical values can stand only once. Like-named read-outs stand apart in the source and are kept apart here.

Key:
Wistar rats [1] = test: Open field test, hypokinetic (sedative) or hyperkinetic action (analgesia examples); details: for Hyperkinesia or sedataion / Hyperkinesia / Hyperkinesia or sedation: unmarked cells; for Hyperkinesia or sedataion: doses as E12; for Hyperkinesia or sedation: doses as E6; for Horizontal locomotive activity: control 16.1
Method: (§1) To evaluate the hypokinetic (sedative) or hyperkinetic action effects of tested drugs an “open field” (OF) test was applied. In the OF test, the locomotive activity of rats is determined. Animals were placed in the center of square of the illuminated field (1 meter×1 meter) for 3 minutes and the mobility time was recorded in seconds (horizontal activity). […] To quantify the locomotive activity for each dose of test drug(s) an average horizontal activity was calculated.
as §1
To evaluate the hypokinetic (sedative) effects of drugs, “open field” (OF) test was applied. In the OF test, the locomotive activity of rats is determined. Animals were placed in the center of square of the illuminated field (1 meter×1 meter) for 3 minutes and the mobility time was recorded in seconds (horizontal activity). […] To quantify the locomotive activity for each dose of test drug(s), an average horizontal activity was calculated.
Tail-Flick and Open Field Tests were Conducted as Detailed Above.
as §1

male Wistar rats = test: Opioid hyperalgesia in tail and paw withdrawal tests (% rats)
Wistar rats [2] = test: Open field test, hyperkinetic side effects (haloperidol catalepsy examples); assay type: in vivo, rat; details: oral
Method: To evaluate the side hyperkinetic effects of drugs, the test an “open field” (OF) test was applied. […] To quantify the locomotive activity for each dose of the test drug(s), an average horizontal activity was calculated.

Wistar rats [3] = test: Rotenone-induced PD: severe oligokinesia in open field test; assay type: in vivo, rat; details: for Severe oligokinesia (% of group): phenylephrine 0.3 mg/kg oral, oligokinesia ++-+++ in OF test; for Severe oligokinesia, Day 12 / Severe oligokinesia, Day 19: control 100
Method: Locomotive activity of rats was tested in the “open field” test. […] Registration of horizontal and vertical locomotive activity was carried out in first day for rats with high selection locomotive activity (total walking time with not less than 12 seconds and the number of vertical uprights at least 4), 60 minutes before the first administration of rotenone. To identify the rotenone-induced oligokinesia in each experimental group the locomotive activity in the open field test was examined again 2 hours after the administration of rotenone on days 12 and 19 of the experiment.
(§2) Quantification of oligokinesia in points: 0 points—the highest horizontal activity (walking total time more than 12 seconds) and high vertical activity (number of vertical posts) more than 3; 1 point—reducing the horizontal activity (total walking time 7-11 seconds) and a decrease in vertical activity (the number of vertical columns 1-3); 2 points—a significant reduction in horizontal activity (total walking time 2-6 seconds) and the absence of vertical activity (the number of vertical columns 0-1); 3 points—the absence of horizontal activity (total walking time 0-1 seconds) and the absence of vertical activity (number of vertical columns 0). In each experimental group 120 minutes after administration of rotenone on days 12 and 19 of experiment the number of rats with severe oligokinesia (2-3 points) in % of the total number of rats in group was determined.
Locomotive activity of rats was tested in the “open field” test. […] Registration of horizontal and vertical locomotive activity was carried out in first day for rats with high selection locomotive activity (total walking time with not less than 12 seconds and the number of vertical uprights at least 4), 60 minutes before the first administration of rotenone. To identify the rotenone-induced oligokynesia in each experimental group the locomotive activity in the open field test was examined again 2 hours after the administration of rotenone on days 12 and 19 of the experiment.
as §2, with “of oligokynesia” for “of oligokinesia”

Wistar rats [4] = test: Rotenone model: hyperkinetic side effect in open field test (days 10 and 18); assay type: in vivo, rat; details: for Hyperkmesia (% of group): phenylephrine 0.3 mg/kg oral
Method: Anti-parkinsonian effect of therapy in rats with rotenone-induced PD was estimated according to elimination of extrapyramidal disorders (catalepsy) and oligokinesia (rapid decreased amplitude and velocity of repeated movements) in the “open field” test. The neuro-protective effect of therapy was evaluated by the elimination of ataxia limb dystonia and mortality in rats with rotenone-induced PSP. Hyperkinetic side action (hyper-locomotion) was evaluated by increased horizontal and vertical activity in the open field at the 10th and 18th day of the experiment, calculated in % compared to the first day of the experiment.
Ataxia and limb dystonia registration was performed twice daily, 30 minutes before administration of rotenone and 180 minutes after administration of rotenone. For each experimental group on a daily basis, throughout the whole period of observation number of rats with severe ataxia and limb dystonia (++−+++) and mortality in % of the total number of rats in group was determined. The neuro-protective effect of therapy (effects on rate of ataxia, limb dystonia and lethality) in rats with PSP was determined at days 12 and 19 of the experiment as reducing the number of rats with severe ataxia limb dystonia and mortality in % compared to control. Side hyperkinetic effects were evaluated in the “open field” test. In this test the locomotive activity in rats is determined. […] Registration of horizontal and vertical locomotive activity in OF assay was performed on the 10th and 18th day of the experiment, within 40 minutes after administration of the substance and 5 minutes before administration of rotenone. Side hyperkinetic effects was evaluated by the number of rats with a significant (at least 50% compared with the first day of the experiment) increase in horizontal and vertical activity (hyperkinesia) as a % of the total number of rats in group.
Anti-parkinsonian effect of therapy in rats with rotenone-induced parkinsonism was estimated according to elimination of extrapyramidal disorders (catalepsy) and oligokinesia in the “open field” test. The neuro-protective effect of therapy was evaluated by the elimination of ataxia and mortality in rats with rotenone-induced PSP. Hyperkinetic side action (hyper-locomotion) was evaluated by increased horizontal and vertical activity in the open field at the 10th and 18th day of the experiment, calculated in % compared to the first day of the experiment.
The neuro-protective effect in the experimental groups of rats with rotenone-induced PSP was evaluated due the elimination of ataxia and mortality caused by neurotoxic action of rotenone. Ataxia is typical incoordination neurotoxic effect of rotenone manifested in uncoordinated movements and hyper-locomotion, replaced by hypokinesia and stereotypes, and in severe cases a complete violation of antigravity reflexes, falling on its side and akinesia. Assessment of the severity of ataxia in scores was performed using the following scale: (+) uncoordinated movement, hyperkinesia; (++) significant incoordination, hypokinesia, stereotypes, falling on its side; (+++) complete violation of antigravity reflexes, akinesia. Ataxia registration was performed twice daily, 30 minutes before administration of rotenone and 180 minutes after administration of rotenone. For each experimental group on a daily basis, throughout the whole period of observation number of rats with severe ataxia (++−+++) and mortality in % of the total number of rats in group was determined. The neuro-protective effect of therapy (effects on rate of ataxia and lethality) in rats with PSP was determined at days 12 and 19 of the experiment as reducing the number of rats with severe ataxia and mortality in % compared to control. Side hyperkinetic effects were evaluated in the “open field” test. In this test the locomotive activity in rats is determined. […]

CN(C)CCC=C1c2ccccc2CCc2ccccc21 [Amitriptyline, amitriptyline]
Hyperkinesia or sedataion (Wistar rats [1]): 0 % rats
Hyperkinesia (Wistar rats [1]; doses as E54): 0 % rats
Hyperalgesia (male Wistar rats; doses as E12): 0 % rats
Hyperalgesia (male Wistar rats; doses as E54): 0 % rats

Cc1c(N(C)CS(=O)(=O)[O-])c(=O)n(-c2ccccc2)n1C.[Na+] [Dipyrone, dipyrone]
Hyperkinesia or sedataion (Wistar rats [1]): 0 % rats
Hyperkinesia (Wistar rats [1]; doses as E54): 0 % rats
Hyperalgesia (male Wistar rats; doses as E12): 0 % rats
Hyperalgesia (male Wistar rats; doses as E54): 0 % rats

CNC[C@H](O)c1ccc(O)c(O)c1 [Epinephrine, epinephrine]
Locomotive horizontal activity in open field (Wistar rats [1]; I.M., control 15.6, doses by row as E32): 15.4 s and 15.9 s and 17.6 s
Sedation (Wistar rats [1]; I.M., doses by row as E3): 0 % of Rats
Sedation (Wistar rats [1]; I.M., doses by row as E32): 0% of group
Hyperkinesia or sedation (Wistar rats [1]): 0 % rats
Hyperkinesia (Wistar rats [1]; doses as E48): 0 % rats
Hyperalgesia (male Wistar rats; doses as E6): 0 % rats
Hyperalgesia (male Wistar rats; doses as E48): 0 % rats

CN1CC[C@]23c4c5ccc(O)c4O[C@H]2[C@@H](O)C=C[C@H]3[C@H]1C5 [Morphine, morphine]
Horizontal locomotive activity (Wistar rats [1]; oral, doses as E35): 15.5 s and 13.2 s and 7.8 s
Hyperkinesia or sedation (Wistar rats [1]): 0 % rats
Hyperkinesia or sedataion (Wistar rats [1]): 0 % rats
Hyperkinesia (Wistar rats [1]; doses as E48): 0 % rats
Hyperkinesia (Wistar rats [1]; doses as E54): 0 % rats

CNC[C@H](O)c1cccc(O)c1 [Phenylephrine, phenylephrine]
Hyperkinesia (Wistar rats [2]; doses by row as E18): 0 % of Rats
Hyperkinesia (Wistar rats [2]; doses by row as E30): 0 % of Rats
Hyperkinesia (Wistar rats [2]; doses by row as E60): 0 % of Rats
Hyperkinesia (Wistar rats [2]; open field 40 min after dosing, doses by row as E1): 0 % of Rats
Horizontal locomotive activity (Wistar rats [1]; oral, doses as E35): 15.9 s and 16.3 s and 17.9 s
Sedation (Wistar rats [1]; oral, doses as E35): 0% of group
Hyperkinesia or sedataion (Wistar rats [1]): 0 % rats
Hyperkinesia (Wistar rats [1]; doses as E54): 0 % rats
Severe oligokinesia (% of group) (Wistar rats [3]; Day 12): 86 % of group
Severe oligokinesia (% of group) (Wistar rats [3]; Day 19): 100 % of group
Severe oligokinesia, Day 12 (Wistar rats [3]): 86 % of group
Severe oligokinesia, Day 19 (Wistar rats [3]): 100 % of group
Severe oligokinesia, Day 12 (Wistar rats [3]; doses as E38): 90 % of group
Severe oligokinesia, Day 19 (Wistar rats [3]; doses as E38): 100 % of group
Hyperkinesia, Day 18 (Wistar rats [4]): 0 % of group
Hyperkmesia (% of group) (Wistar rats [4]; Day 10, locomotive activity in OF test increased more than 50% vs first day): 0 % of group
Hyperkmesia (% of group) (Wistar rats [4]; Day 18, locomotive activity in OF test increased more than 50% vs first day): 0 % of group
Hyperkinesia, Day 10 (Wistar rats [4]; doses as E38): 0 % of group
Hyperkinesia, Day 18 (Wistar rats [4]; doses as E38): 0 % of group
Hyperkinesia, Day 10 (Wistar rats [4]; locomotive activity in OF test increased more than 50% vs first day): 0 % of group
Hyperalgesia (male Wistar rats; doses as E12): 0 % rats
Hyperalgesia (male Wistar rats; doses as E54): 0 % rats
